Reference: US20090149496A1, “INHIBITORS OF THE TASK-1 AND TASK-3 ION CHANNEL” (SANOFI-AVENTIS DEUTSCHLAND GMBH, priority 2006, published 2009)

Experiments:
TASK1 (mouse) = molecular target: T1, TASK1 (mouse) (Mus musculus, UniProt O35111); test: Activity on the TASK-1 channel in Xenopus oocytes (two-microelectrode voltage clamp), mouse channel; assay type: cell-based; conditions: mouse TASK-1 expressed in Xenopus oocytes, voltage jumps to 40 mV, pH 7.4, room temperature; read-out: IC50 (μmol) TASK1 (mouse)
T1 construct: expressed in transfected cells; host or cells: Xenopus laevis oocytes injected with in vitro synthesized RNA
T1 sequence (O35111 whole entry): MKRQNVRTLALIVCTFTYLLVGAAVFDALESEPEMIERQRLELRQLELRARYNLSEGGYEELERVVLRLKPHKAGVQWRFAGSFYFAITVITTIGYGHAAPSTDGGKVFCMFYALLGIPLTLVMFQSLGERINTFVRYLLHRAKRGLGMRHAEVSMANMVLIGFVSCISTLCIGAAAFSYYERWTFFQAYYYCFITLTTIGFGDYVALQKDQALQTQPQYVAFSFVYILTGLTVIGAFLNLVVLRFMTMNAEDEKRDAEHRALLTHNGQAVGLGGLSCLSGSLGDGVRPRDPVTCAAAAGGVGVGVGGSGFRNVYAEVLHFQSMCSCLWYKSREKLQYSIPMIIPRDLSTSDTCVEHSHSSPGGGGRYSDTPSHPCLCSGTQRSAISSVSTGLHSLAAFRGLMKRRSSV
Description: (§1) A) Determination of the Activity on the TASK-1 Channel in Xenopus Oocytes
(§2) Mouse or human TASK-1 channels were expressed in Xenopus oocytes. For this purpose, oocytes were first isolated from Xenopus levis and defolliculated. Subsequently, TASK-1-encoding RNA synthesized in vitro was injected into these oocytes. After two days of TASK-1 protein expression, TASK-1 currents were measured on the oocytes with the two-microelectrode voltage clamp technique. In this measurement, the TASK-1 channels were generally activated with voltage jumps lasting 250 ms to 40 mV. The bath was flushed with a solution of the following composition: NaCl 96 mM, KCl 2 mM, CaCl2 1.8 mM, MgCl2 1 mM, HEPES 5 mM (titrated to pH 7.4 with NaOH). These experiments were performed at room temperature. For data acquisition and analysis, the following were used: Geneclamp amplifier (Axon Instruments, Foster City, USA) and MacLab D/A converter and software (ADinstruments, Castle Hill, Australia). The inventive substances were tested by adding them to the bath solution in different concentrations. The effects of the substances were calculated as the percentage inhibition of the TASK-1 control current which was obtained when no substance was added to the solution. The data was subsequently fitted to the Hill equation in order to determine the half-maximum inhibitory concentrations (IC50 values) for the particular substances.

human TASK-3 channel = molecular target: T2, human TASK-3 channel (Homo sapiens, UniProt Q9NPC2); test: Activity on the TASK-3 channel by patch-clamp on CHO cells; assay type: cell-based; conditions: whole cell, CHO cells expressing human TASK-3, read-out: IC50 (μmol/l) TASK3 (human)
T2 construct: expressed in transfected cells; host or cells: CHO DHFR-minus cells, clone CHO-244-8-1
T2 sequence (Q9NPC2 whole entry): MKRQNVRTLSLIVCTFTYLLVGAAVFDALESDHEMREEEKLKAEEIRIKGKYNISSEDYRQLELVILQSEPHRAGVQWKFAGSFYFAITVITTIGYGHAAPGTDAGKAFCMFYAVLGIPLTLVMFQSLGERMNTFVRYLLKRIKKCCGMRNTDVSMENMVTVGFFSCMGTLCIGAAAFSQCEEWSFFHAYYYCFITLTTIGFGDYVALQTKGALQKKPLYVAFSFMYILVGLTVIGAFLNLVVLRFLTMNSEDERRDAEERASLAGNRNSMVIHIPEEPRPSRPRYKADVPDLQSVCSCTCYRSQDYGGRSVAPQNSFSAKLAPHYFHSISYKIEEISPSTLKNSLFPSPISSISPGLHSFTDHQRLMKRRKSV
Description: C) Determination of the Activity on the TASK-3 Channel by Patch-Clamp Investigations
With the aid of the patch-clamp technique, the inhibition of the human TASK-3 current by the example compounds was measured on CHO cells in which the human TASK-3 channel is expressed. To produce the TASK-3 cell line, the human TASK-3 cDNA (Genbank, Accession Number AF248241) was cloned into the eukaryotic expression vector p658, which bears a DHFR (dihydrofolate reductase) resistance gene [reference: Gene 1994 (149), 341-344, 1994]. CHO (Chinese hamster ovary) DHFR-minus cells were transfected with the TASK-3 expression construct using the Fugene reagent (Roche Biochemicals) according to the manufacturer's instructions. […] Resulting cell clones were analyzed for the expression of TASK-3 with the aid of a fluorescence-based activity assay in a FlexStation (Molecular Devices) and with a membrane potention-sensitive dye (Molecular Devices FMP Dye Kit). […] TASK-3-positive cell clones were subsequently analyzed for resulting potassium currents with the patch-clamp technique. […]
To investigate the substances, the cells were introduced into a measurement chamber which is mounted on an inverted microscope. […] The concentration of the half-maximum inhibition of the current (IC50 value) was determined by fitting the curve to the mathematical Hill equation.
In this analysis, the following IC50 values were determined: […]

respiration in rabbits = test: Action on respiration in rabbits (propofol-induced apnea); assay type: in vivo; conditions: rabbit, 10 mg/kg i.v., propofol 10 mg/kg/min, n = 13
Description: D) Investigation of the Action on Respiration in Rabbits
An apnea was induced in the rabbit by infusion of the narcotic propofol, 10 mg/kg/min. The vehicle used for the compound of example 1 (R-enantiomer) was DMSO/PEG (0.2 ml/1.8 ml). The time from the start of propofol infusion up to the apnea was recorded.

genioglossus muscle = test: Electromyographic activity of the genioglossus muscle in narcotized rats; assay type: in vivo, rat
Description: (§3) E) Investigation of the Effect on the Electromyographic Activity of the Genioglossus Muscle and the Respiratory Minute Volume in Rats
(§4) The compound of example 1 (R-enantiomer) and of example 2 was investigated for electromyographic activity of the genioglossus muscle and for respiration-stimulating effect on male urethane-chloralose-narcotized, vagotomized rats with a weight of from 250 to 300 g. For this purpose, the genioglossus EMG activity was measured by means of EMG electrodes. The respiration-stimulating effect was investigated by measuring the respiratory minute volume by means of a tracheal cannula. For the investigations, the rats were administered intravenously successively with 1, 3 and 10 mg/kg of the compound of example 1 (R-enantiomer) and of example 2, with glycofurol (50%) as the vehicle, at 15 minute intervals. CO2 was used as the positive control for the stimulation of the genioglossus activity and of the respiratory minute volume.

respiration = test: Respiratory minute volume in narcotized rats; assay type: in vivo, rat
Description: as §3, §4

rats = test: Compatibility in rats; assay type: in vivo, rat; conditions: oral administration of 1000 mg/kg
From the text: F) Investigation of Compatibility in Rats

TASK1 (human) [1] = molecular target: T3, TASK1 (human) (Homo sapiens, UniProt O14649); test: Activity on the TASK-1 channel with the FLIPR technique on CHO cells; assay type: cell-based; set-up: expressed in transfected cells; host or cells: CHO cells; conditions: inhibition of human TASK-1 current, 10 μmol/l
T3 sequence (O14649 whole entry): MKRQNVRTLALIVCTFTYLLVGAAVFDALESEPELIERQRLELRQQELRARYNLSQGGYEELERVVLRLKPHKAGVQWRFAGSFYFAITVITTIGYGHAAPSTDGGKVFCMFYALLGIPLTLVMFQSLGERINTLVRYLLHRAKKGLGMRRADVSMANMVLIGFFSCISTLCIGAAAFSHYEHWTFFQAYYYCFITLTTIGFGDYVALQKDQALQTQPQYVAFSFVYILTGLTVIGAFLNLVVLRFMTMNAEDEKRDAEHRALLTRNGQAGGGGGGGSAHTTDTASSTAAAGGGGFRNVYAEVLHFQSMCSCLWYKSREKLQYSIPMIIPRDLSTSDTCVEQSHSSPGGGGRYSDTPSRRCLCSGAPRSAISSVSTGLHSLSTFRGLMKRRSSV
From the text: B) Determination of the Activity on the TASK-1 Channel with the FLIPR Technique

TASK1 (human) [2] = molecular target: T3, TASK1 (human); test: Activity on the TASK-1 channel in Xenopus oocytes (two-microelectrode voltage clamp), human channel; assay type: cell-based; set-up: expressed in transfected cells; host or cells: Xenopus laevis oocytes injected with in vitro synthesized RNA; conditions: human TASK-1 expressed in Xenopus oocytes, voltage jumps to 40 mV, pH 7.4, room temperature; read-out: IC50 (μmol) TASK1 (human)
Description: as §1, §2

IC50 (TASK1 (mouse)): 150 nM | IC50 (human TASK-3 channel): 1 µmol/L | melting point: 97 °C | inhibition at 10 µM (TASK1 (human) [1]): 81% | IC50 (TASK1 (human) [2]): 100 nM
SMILES: CCCCS(=O)(=O)Nc1ccccc1C(=O)N[C@H](CC)c1ccc(OC)nc1 [Example 1 (R-enantiomer), 2-(Butyl-1-sulfonylamino)-N-[1(R)-(6-methoxypyridin-3-yl)propyl]benzamide]
Time from the start of propofol infusion up to the apnea (mean) (respiration in rabbits): 5.63 min | EMG activity of the genioglossus muscle (mean) (genioglossus muscle; 1 mg/kg intravenously): 4.45 arbitrary units | EMG activity of the genioglossus muscle (mean) (genioglossus muscle; 3 mg/kg intravenously): 5.59 arbitrary units | EMG activity of the genioglossus muscle (mean) (genioglossus muscle; 10 mg/kg intravenously): 7.18 arbitrary units | Effect on the electromyographic activity of the genioglossus muscle (in words) (genioglossus muscle; summary of tables 2 and 4): stimulate | Respiratory minute volume (mean) (respiration; 1 mg/kg intravenously): 246 mL/min | Respiratory minute volume (mean) (respiration; 3 mg/kg intravenously): 317 mL/min | Respiratory minute volume (mean) (respiration; 10 mg/kg intravenously): 375 mL/min | Effect on the respiratory minute volume (in words) (respiration; summary of tables 3 and 5): stimulate | Side-effects (rats): no side-effects were observed
